Values joined by “and” are separate entries in the source; they are usually repeats but may differ in a detail not shown here. Equal values may be shown once. Toxic doses and inconclusive results are not listed. Cut-off read from the data, not from the text of the source: active = T/C of 150% or more; inactive = T/C below 125%.
System: L1210 leukemia ip in BDF1 mice, survival T/C
Experiment: NCI In Vivo Anticancer Drug Screen. Data for tumor model L1210 Leukemia (intraperitoneal) in B6D2F1 (BDF1) mice
Conditions: endpoint: mean survival time, higher = longer survival
Outline: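 Transplanted-tumor mice were given test agent; controls received vehicle only. Survival readings from the two groups were divided (treated over control).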

[1] = dose: 100.0 mg/kg/injection, schedule: Q01DX009 (ip), vehicle: saline with Tween-80
[2] = dose: 100.0 mg/kg/injection, schedule: Q04DX003 (ip), vehicle: saline with Tween-80
[3] = dose: 200.0 mg/kg/injection, schedule: Q01DX009 (ip), vehicle: saline with Tween-80
[4] = dose: 200.0 mg/kg/injection, schedule: Q04DX003 (ip), vehicle: saline with Tween-80
[5] = dose: 400.0 mg/kg/injection, schedule: Q04DX003 (ip), vehicle: saline with Tween-80
[6] = dose: 100.0 mg/kg/injection, schedule: Q04DX002 (ip), vehicle: saline
[7] = dose: 200.0 mg/kg/injection, schedule: Q04DX002 (ip), vehicle: saline
[8] = dose: 400.0 mg/kg/injection, schedule: Q04DX002 (ip), vehicle: saline
[9] = dose: 100.0 mg/kg/injection, schedule: Q01DX009 (ip), vehicle: Klucel (hydroxypropylcellulose) (HPC)
[10] = dose: 100.0 mg/kg/injection, schedule: Q04DX003 (ip), vehicle: Klucel (hydroxypropylcellulose) (HPC)
[11] = dose: 200.0 mg/kg/injection, schedule: Q01DX009 (ip), vehicle: Klucel (hydroxypropylcellulose) (HPC)
[12] = dose: 200.0 mg/kg/injection, schedule: Q04DX003 (ip), vehicle: Klucel (hydroxypropylcellulose) (HPC)
[13] = dose: 400.0 mg/kg/injection, schedule: Q01DX009 (ip), vehicle: Klucel (hydroxypropylcellulose) (HPC)
[14] = dose: 400.0 mg/kg/injection, schedule: Q04DX003 (ip), vehicle: Klucel (hydroxypropylcellulose) (HPC)

Measured: T/C

NC(=O)CC(NC(=O)OCc1ccccc1)C(=O)OCc1ccccc1 (configuration not stated)
inactive: [1] 106 % of control | [2] 96 % of control | [3] 95 % of control | [4] 96 % of control | dose: 400.0 mg/kg/injection, schedule: Q01DX009 (ip), vehicle: saline with Tween-80 93 % of control | [5] 91 % of control

O=C(Nc1cccc(F)c1)Nc1ccc(C(=O)O)c(O)c1
inactive: [1] 91 % of control | [3] 95 % of control

COC(=O)c1ccc[n+](C)c1
inactive: [6] 104 % of control | [7] 101 % of control

CCOC(=O)NCC(CCN(CC)CC)(c1cccc2ccccc12)C(C)CC (configuration not stated)
inactive: [6] 93 % of control | [7] 90 % of control | [8] 100 % of control

CCCCNC(=O)Nc1ccc(C(=O)OCC)cc1
inactive: [9] 98 % of control | [10] 95 % of control | [11] 98 % of control | [12] 96 % of control | [13] 88 % of control | [14] 94 % of control

COc1cc2c(cc1OC)C1CC(=O)CCN1CC2 (configuration not stated)
inactive: [11] 101 % of control

CN(C)C1=CC(=O)C(N(C)C)=CC1=O
inactive: dose: 100.0 mg/kg/injection, schedule: Q01DX001 (ip), vehicle: Klucel (hydroxypropylcellulose) (HPC) 110 % of control | dose: 200.0 mg/kg/injection, schedule: Q01DX001 (ip), vehicle: Klucel (hydroxypropylcellulose) (HPC) 112 % of control | dose: 400.0 mg/kg/injection, schedule: Q01DX001 (ip), vehicle: Klucel (hydroxypropylcellulose) (HPC) 105 % of control

O=C(O)CNCC(=O)O
inactive: dose: 25.0 mg/kg/injection, schedule: Q01DX009 (ip), vehicle: saline 103 % of control | dose: 50.0 mg/kg/injection, schedule: Q01DX009 (ip), vehicle: saline 90 % of control | dose: 100.0 mg/kg/injection, schedule: Q01DX009 (ip), vehicle: saline 93 % of control and 95 % of control | [2] 105 % of control | [4] 101 % of control | [5] 105 % of control

CC1(C)CCc2cc3c(O)c(-c4ccccc4)c(=O)oc3cc2O1
inactive: dose: 100.0 mg/kg/injection, schedule: Q04DX003 (ip), vehicle: saline 97 % of control | dose: 200.0 mg/kg/injection, schedule: Q04DX003 (ip), vehicle: saline 91 % of control | dose: 400.0 mg/kg/injection, schedule: Q04DX003 (ip), vehicle: saline 91 % of control

Cc1nc(N)n(C)n1
inactive: [6] 104 % of control | [7] 101 % of control | [8] 101 % of control

CC(=O)Nc1cc2c(cc1[N+](=O)[O-])-c1ccc([N+](=O)[O-])cc1C2
inactive: [9] 95 % of control | [10] 93 % of control | [11] 89 % of control | [12] 91 % of control | [13] 94 % of control | [14] 94 % of control

COc1ccccc1C1CCCCC1=O (configuration not stated)
inactive: dose: 100.0 mg/kg/injection, schedule: Q01DX001 (ip), vehicle: other 105 % of control | dose: 200.0 mg/kg/injection, schedule: Q01DX001 (ip), vehicle: other 96 % of control | dose: 400.0 mg/kg/injection, schedule: Q01DX001 (ip), vehicle: other 89 % of control

COc1ccc(C(=O)C(C)C)cc1
inactive: dose: 37.5 mg/kg/injection, schedule: Q01DX009 (ip), vehicle: saline sonified 95 % of control | dose: 75.0 mg/kg/injection, schedule: Q01DX009 (ip), vehicle: saline sonified 93 % of control | dose: 150.0 mg/kg/injection, schedule: Q01DX009 (ip), vehicle: saline sonified 103 % of control

C=C1CC(c2ccccc2)(c2cccs2)OC1=O (configuration not stated)
inactive: [10] 98 % of control | [12] 96 % of control

O=c1[nH]c2cc3ccccc3cc2c2ccccc12
inactive: dose: 100.0 mg/kg/injection, schedule: Q01DX001 (ip), vehicle: saline 109 % of control | dose: 200.0 mg/kg/injection, schedule: Q01DX001 (ip), vehicle: saline 95 % of control | dose: 400.0 mg/kg/injection, schedule: Q01DX001 (ip), vehicle: saline 100 % of control

Cc1ccc(NCc2nc(N)nc(Nc3ccc(C)cc3)n2)cc1
inactive: [2] 93 % of control | [4] 101 % of control | [5] 97 % of control

Nc1nc(=O)n(CCCOc2ccccc2)cc1-c1ccc(Cl)c(Cl)c1
inactive: dose: 100.0 mg/kg/injection, schedule: Q01DX001 (ip), vehicle: gum acacia 99 % of control | dose: 200.0 mg/kg/injection, schedule: Q01DX001 (ip), vehicle: gum acacia 94 % of control
